# ChEMBL document CHEMBL1151757, “Synthesis, radiosynthesis, and biological evaluation of fluorine-18-labeled 2beta-carbo(fluoroalkoxy)-3beta-(3'-((Z)-2-haloethenyl)phenyl)nortropanes: candidate radioligands for in vivo imaging of the serotonin transporter with positron emission tomography” (J Med Chem, 2008)
# Key:
# [1] = Ratio of drug uptake in pons to cerebellum in anesthetized cynomolgus monkey after 35 mins postinjection; assay type: ADME, organism-based, Macaca fascicularis; settings: in vivo
# [2] = Ratio of drug uptake in pons to cerebellum in anesthetized cynomolgus monkey after 85 mins postinjection; assay type: ADME, organism-based, Macaca fascicularis; settings: in vivo
# [3] = Ratio of drug uptake in pons to cerebellum in anesthetized cynomolgus monkey after 105 mins postinjection; assay type: ADME, organism-based, Macaca fascicularis; settings: in vivo, 1.75 h
# [4] = Ratio of drug uptake in pons to cerebellum in anesthetized cynomolgus monkey after 125 mins postinjection; assay type: ADME, organism-based, Macaca fascicularis; settings: in vivo
# [5] = Ratio of drug uptake in medulla to cerebellum in anesthetized cynomolgus monkey after 18.5 mins postinjection; assay type: ADME, organism-based, Macaca fascicularis; settings: in vivo
# [6] = Drug uptake in anesthetized cynomolgus monkey brain occipital lobe after 6.5 mins postinjection; assay type: ADME, organism-based, Macaca fascicularis; design: unit not given here; settings: in vivo
# [7] = Drug uptake in anesthetized cynomolgus monkey brain occipital lobe after 75 mins postinjection; assay type: ADME, organism-based, Macaca fascicularis; settings: in vivo, 1.25 h
# [8] = Drug uptake in anesthetized cynomolgus monkey brain frontal lobe after 1.5 mins postinjection; assay type: ADME, organism-based, Macaca fascicularis; settings: in vivo, 0.025 h
# [9] = Drug uptake in anesthetized cynomolgus monkey brain frontal lobe after 22.5 mins postinjection; assay type: ADME, organism-based, Macaca fascicularis; settings: in vivo, 0.375 h
# [10] = Drug uptake in anesthetized cynomolgus monkey brain frontal lobe after 27.5 mins postinjection; assay type: ADME, organism-based, Macaca fascicularis; settings: in vivo
# [11] = Drug uptake in anesthetized cynomolgus monkey brain frontal lobe after 105 mins postinjection; assay type: ADME, organism-based, Macaca fascicularis; settings: in vivo, 1.75 h
# [12] = Drug uptake in anesthetized cynomolgus monkey brain frontal lobe after 115 mins postinjection; assay type: ADME, organism-based, Macaca fascicularis; settings: in vivo
# Putamen [13] = test: Drug uptake in anesthetized cynomolgus monkey brain putamen after 135 mins postinjection; assay type: ADME, organism-based, Macaca fascicularis; settings: in vivo, 2.25 h
# Putamen [14] = test: Drug uptake in anesthetized cynomolgus monkey brain putamen after 215 mins postinjection; assay type: ADME, organism-based, Macaca fascicularis; settings: in vivo
# Thalamus [15] = test: Drug uptake in anesthetized cynomolgus monkey brain thalamus after 1.5 mins postinjection; assay type: ADME, organism-based, Macaca fascicularis; settings: in vivo, 0.025 h
# [16] = Ratio of drug uptake in occipital lobe to cerebellum in anesthetized cynomolgus monkey after 235 mins postinjection; assay type: ADME, organism-based, Macaca fascicularis; settings: in vivo
# [17] = Ratio of drug uptake in frontal lobe to cerebellum in anesthetized cynomolgus monkey after 135 mins postinjection; assay type: ADME, organism-based, Macaca fascicularis; settings: in vivo, 2.25 h
# Midbrain [18] = test: Drug uptake in anesthetized cynomolgus monkey brain midbrain after 135 mins postinjection; assay type: ADME, organism-based, Macaca fascicularis; settings: in vivo, 2.25 h
# Midbrain [19] = test: Drug uptake in anesthetized cynomolgus monkey brain midbrain after 175 mins postinjection; assay type: ADME, organism-based, Macaca fascicularis; settings: in vivo
# Pons [20] = test: Drug uptake in anesthetized cynomolgus monkey brain pons after 1.5 mins postinjection; assay type: ADME, organism-based, Macaca fascicularis; settings: in vivo, 0.025 h
# Pons [21] = test: Drug uptake in anesthetized cynomolgus monkey brain pons after 2.5 mins postinjection; assay type: ADME, organism-based, Macaca fascicularis; settings: in vivo
# Pons [22] = test: Drug uptake in anesthetized cynomolgus monkey brain pons after 18.5 mins postinjection; assay type: ADME, organism-based, Macaca fascicularis; settings: in vivo
# Pons [23] = test: Drug uptake in anesthetized cynomolgus monkey brain pons after 45 mins postinjection; assay type: ADME, organism-based, Macaca fascicularis; settings: in vivo, 0.75 h
# Pons [24] = test: Drug uptake in anesthetized cynomolgus monkey brain pons after 75 mins postinjection; assay type: ADME, organism-based, Macaca fascicularis; settings: in vivo, 1.25 h
# Pons [25] = test: Drug uptake in anesthetized cynomolgus monkey brain pons after 95 mins postinjection; assay type: ADME, organism-based, Macaca fascicularis; settings: in vivo
# [26] = Ratio of drug uptake in caudate to cerebellum in anesthetized cynomolgus monkey after 0.5 mins postinjection; assay type: ADME, organism-based, Macaca fascicularis; settings: in vivo
# [27] = Ratio of drug uptake in caudate to cerebellum in anesthetized cynomolgus monkey after 95 mins postinjection; assay type: ADME, organism-based, Macaca fascicularis; settings: in vivo
# Pons [28] = test: Drug uptake in anesthetized cynomolgus monkey brain pons after 155 mins postinjection; assay type: ADME, organism-based, Macaca fascicularis; settings: in vivo
# Medulla [29] = test: Drug uptake in anesthetized cynomolgus monkey brain medulla after 15.5 mins postinjection; assay type: ADME, organism-based, Macaca fascicularis; settings: in vivo
# Medulla [30] = test: Drug uptake in anesthetized cynomolgus monkey brain medulla after 95 mins postinjection; assay type: ADME, organism-based, Macaca fascicularis; settings: in vivo
# Medulla [31] = test: Drug uptake in anesthetized cynomolgus monkey brain medulla after 145 mins postinjection; assay type: ADME, organism-based, Macaca fascicularis; settings: in vivo
# [32] = Drug uptake in anesthetized cynomolgus monkey brain cerebellum after 22.5 mins postinjection; assay type: ADME, organism-based, Macaca fascicularis; settings: in vivo, 0.375 h
# [33] = Drug uptake in anesthetized cynomolgus monkey brain cerebellum after 45 mins postinjection; assay type: ADME, organism-based, Macaca fascicularis; settings: in vivo, 0.75 h
# [34] = Drug uptake in anesthetized cynomolgus monkey brain cerebellum after 65 mins postinjection; assay type: ADME, organism-based, Macaca fascicularis; settings: in vivo
# [35] = Drug uptake in anesthetized cynomolgus monkey brain cerebellum after 155 mins postinjection; assay type: ADME, organism-based, Macaca fascicularis; settings: in vivo
# [36] = Ratio of drug uptake in thalamus to cerebellum in anesthetized cynomolgus monkey after 115 mins postinjection; assay type: ADME, organism-based, Macaca fascicularis; settings: in vivo
# Caudate [37] = test: Drug uptake in anesthetized cynomolgus monkey brain caudate after 2.5 mins postinjection; assay type: ADME, organism-based, Macaca fascicularis, Caudate nucleus; settings: in vivo
# Caudate [38] = test: Drug uptake in anesthetized cynomolgus monkey brain caudate after 6.5 mins postinjection; assay type: ADME, organism-based, Macaca fascicularis, Caudate nucleus; settings: in vivo
# Caudate [39] = test: Drug uptake in anesthetized cynomolgus monkey brain caudate after 12.5 mins postinjection; assay type: ADME, organism-based, Macaca fascicularis, Caudate nucleus; settings: in vivo
# Caudate [40] = test: Drug uptake in anesthetized cynomolgus monkey brain caudate after 75 mins postinjection; assay type: ADME, organism-based, Macaca fascicularis, Caudate nucleus; settings: in vivo, 1.25 h
# Caudate [41] = test: Drug uptake in anesthetized cynomolgus monkey brain caudate after 95 mins postinjection; assay type: ADME, organism-based, Macaca fascicularis, Caudate nucleus; settings: in vivo
# Putamen [42] = test: Drug uptake in anesthetized cynomolgus monkey brain putamen after 2.5 mins postinjection; assay type: ADME, organism-based, Macaca fascicularis; settings: in vivo
# [43] = Ratio of drug uptake in occipital lobe to cerebellum in anesthetized cynomolgus monkey after 18.5 mins postinjection; assay type: ADME, organism-based, Macaca fascicularis; settings: in vivo
# Thalamus [44] = test: Drug uptake in anesthetized cynomolgus monkey brain thalamus after 2.5 mins postinjection; assay type: ADME, organism-based, Macaca fascicularis; design: unit not given here; settings: in vivo
# Thalamus [45] = test: Drug uptake in anesthetized cynomolgus monkey brain thalamus after 4.5 mins postinjection; assay type: ADME, organism-based, Macaca fascicularis; design: unit not given here; settings: in vivo, 0.075 h
# Thalamus [46] = test: Drug uptake in anesthetized cynomolgus monkey brain thalamus after 6.5 mins postinjection; assay type: ADME, organism-based, Macaca fascicularis; design: unit not given here; settings: in vivo
# Thalamus [47] = test: Drug uptake in anesthetized cynomolgus monkey brain thalamus after 22.5 mins postinjection; assay type: ADME, organism-based, Macaca fascicularis; design: unit not given here; settings: in vivo, 0.375 h
# Putamen [48] = test: Drug uptake in anesthetized cynomolgus monkey brain putamen after 12.5 mins postinjection; assay type: ADME, organism-based, Macaca fascicularis; design: unit not given here; settings: in vivo
# Putamen [49] = test: Drug uptake in anesthetized cynomolgus monkey brain putamen after 15.5 mins postinjection; assay type: ADME, organism-based, Macaca fascicularis; design: unit not given here; settings: in vivo
# Putamen [50] = test: Drug uptake in anesthetized cynomolgus monkey brain putamen after 22.5 mins postinjection; assay type: ADME, organism-based, Macaca fascicularis; design: unit not given here; settings: in vivo, 0.375 h
# Putamen [51] = test: Drug uptake in anesthetized cynomolgus monkey brain putamen after 35 mins postinjection; assay type: ADME, organism-based, Macaca fascicularis; design: unit not given here; settings: in vivo
# Putamen [52] = test: Drug uptake in anesthetized cynomolgus monkey brain putamen after 55 mins postinjection; assay type: ADME, organism-based, Macaca fascicularis; design: unit not given here; settings: in vivo
# Thalamus [53] = test: Drug uptake in anesthetized cynomolgus monkey brain thalamus after 75 mins postinjection; assay type: ADME, organism-based, Macaca fascicularis; design: unit not given here; settings: in vivo, 1.25 h
# Thalamus [54] = test: Drug uptake in anesthetized cynomolgus monkey brain thalamus after 85 mins postinjection; assay type: ADME, organism-based, Macaca fascicularis; design: unit not given here; settings: in vivo
# Thalamus [55] = test: Drug uptake in anesthetized cynomolgus monkey brain thalamus after 125 mins postinjection; assay type: ADME, organism-based, Macaca fascicularis; design: unit not given here; settings: in vivo
# Thalamus [56] = test: Drug uptake in anesthetized cynomolgus monkey brain thalamus after 225 mins postinjection; assay type: ADME, organism-based, Macaca fascicularis; design: unit not given here; settings: in vivo, 3.75 h
# Midbrain [57] = test: Drug uptake in anesthetized cynomolgus monkey brain midbrain after 0.5 mins postinjection; assay type: ADME, organism-based, Macaca fascicularis; design: unit not given here; settings: in vivo
# Midbrain [58] = test: Drug uptake in anesthetized cynomolgus monkey brain midbrain after 15.5 mins postinjection; assay type: ADME, organism-based, Macaca fascicularis; design: unit not given here; settings: in vivo
# Midbrain [59] = test: Drug uptake in anesthetized cynomolgus monkey brain midbrain after 22.5 mins postinjection; assay type: ADME, organism-based, Macaca fascicularis; design: unit not given here; settings: in vivo, 0.375 h
# Midbrain [60] = test: Drug uptake in anesthetized cynomolgus monkey brain midbrain after 35 mins postinjection; assay type: ADME, organism-based, Macaca fascicularis; design: unit not given here; settings: in vivo
# Midbrain [61] = test: Drug uptake in anesthetized cynomolgus monkey brain midbrain after 95 mins postinjection; assay type: ADME, organism-based, Macaca fascicularis; design: unit not given here; settings: in vivo
# [62] = Ratio of drug uptake in midbrain to cerebellum in anesthetized cynomolgus monkey after 9.5 mins postinjection; assay type: ADME, organism-based, Macaca fascicularis; settings: in vivo
# [63] = Ratio of drug uptake in midbrain to cerebellum in anesthetized cynomolgus monkey after 85 mins postinjection; assay type: ADME, organism-based, Macaca fascicularis; settings: in vivo
# [64] = Ratio of drug uptake in midbrain to cerebellum in anesthetized cynomolgus monkey after 135 mins postinjection; assay type: ADME, organism-based, Macaca fascicularis; settings: in vivo, 2.25 h
structure (smiles),measurement,setting,value
O=C(OCCC[18F])C1C2CCC(CC1c1cccc(/C=C\Br)c1)N2 (centres undefined),Ratio,[1],0.9
same,Ratio,[2],1.2
same,Ratio,[3],1.3
same,Ratio,[4],1.4
same,Ratio,[5],1
same,Drug uptake,[6],3.31
same,Drug uptake,[7],4.29
same,Drug uptake,[8],0.25
same,Drug uptake,[9],3.74
same,Drug uptake,[10],3.8
same,Drug uptake,[11],3.19
same,Drug uptake,[12],3.2
same,Drug uptake,Putamen [13],4.74
same,Drug uptake,Putamen [14],3.51
same,Drug uptake,Thalamus [15],0.34
same,Ratio,[16],1.4
same,Ratio,[17],1
same,Drug uptake,Midbrain [18],5.36
same,Drug uptake,Midbrain [19],4.91
same,Drug uptake,Pons [20],0.38
same,Drug uptake,Pons [21],0.9
same,Drug uptake,Pons [22],4.55
same,Drug uptake,Pons [23],4.85
same,Drug uptake,Pons [24],4.67
same,Drug uptake,Pons [25],4.68
same,Ratio,[26],0.9
same,Ratio,[27],1.3
same,Drug uptake,Pons [28],4.03
same,Drug uptake,Medulla [29],5.77
same,Drug uptake,Medulla [30],5.59
same,Drug uptake,Medulla [31],4.91
same,Drug uptake,[32],5.9
same,Drug uptake,[33],5.11
same,Drug uptake,[34],4.29
same,Drug uptake,[35],2.62
same,Ratio,[36],1.5
same,Drug uptake,Caudate [37],0.83
same,Drug uptake,Caudate [38],3.14
same,Drug uptake,Caudate [39],4.23
same,Drug uptake,Caudate [40],5.17
same,Drug uptake,Caudate [41],5.03
same,Drug uptake,Putamen [42],1.34
same,Ratio,[43],0.7
same,Drug uptake,Thalamus [44],1.12
same,Drug uptake,Thalamus [45],2.48
same,Drug uptake,Thalamus [46],3.71
same,Drug uptake,Thalamus [47],5.02
same,Drug uptake,Putamen [48],5.25
same,Drug uptake,Putamen [49],5.53
same,Drug uptake,Putamen [50],5.81
same,Drug uptake,Putamen [51],6.11
same,Drug uptake,Putamen [52],5.97
same,Drug uptake,Thalamus [53],5.33
same,Drug uptake,Thalamus [54],5.27
same,Drug uptake,Thalamus [55],4.71
same,Drug uptake,Thalamus [56],3.52
same,Drug uptake,Midbrain [57],0.01
same,Drug uptake,Midbrain [58],5.7
same,Drug uptake,Midbrain [59],5.88
same,Drug uptake,Midbrain [60],6.14
same,Drug uptake,Midbrain [61],5.79
same,Ratio,[62],0.9
same,Ratio,[63],1.5
same,Ratio,[64],1.9
